Measurements: patent US7038028B1, “Gene encoding promoter domain of tumor suppressor gene P51 and use thereof” (Toshiyuki Sakai, priority 1999, dated 2006)
Entries after “also recorded” stand apart in the source; their conditions may differ.

Columns and labels:
Type in all cases: cell-based, human
p51A mRNA = assay: Northern blotting of the amount of p51 expressed in HCT116 cells after stimulation with drugs; details: 24 hours treatment, 1 μg/ml trichostatin A, Northern blotting of 20 μg RNA
Procedure: A variety of stimulations including stimulation with a drug were applied to a cell line HCT116 derived from colon cancer to investigate changes in the amount expressed of p51 by Northern blotting. 200,000 cells of HCT116 cells were plated on a culture dish with a diameter of 60 mm, and cultured in the presence of 5% carbon dioxide at 37° C. for two days. The medium used was McCOY's 5A (manufactured by Nisseiken) to which fetal bovine serum (FBS) was added to a final concentration of 10% (referred to hereinafter as McCOY's 5A/10% FBS). Then it was treated with A23187 (0.1 μM, 1 μM), cisplatin (1 μg/ml, 10 μg/ml), CPTcAMP (0.1 μM, 1 μM), etoposide (10 μg/ml, 0.1 μg/ml), genistein (1 μM, 10 μM), ML-236B (1 μg/ml, 10 μg/ml), milurinone (1 μM, 10 μM), mitomycin C (5 μg/ml, 50 μg/ml), NKH477 (0.1 μM, 1 μM), okadaic acid (1 nM, 10 nM), radicicol (0.1 μg/ml, 1 μg/ml), staurosporin (1 nM, 10 nM), taxol (1 μg/ml, 10 μg/ml), trichostatin A (0.1 μg/ml, 1 μg/ml), radiation (50 J/m^2, 100 J/m^2), vitamin D3 (10 nM, 100 nM), vincristine (1 μg/ml, 10 μg/ml), and wortmannin (0.1 μM, […]), and further cultured in the presence of 5% carbon dioxide at 37° C. for 24 hours. Then, from the cells, RNA was prepared using ISOGEN (manufactured by Nippongene). […] Then, the membrane was analyzed on autoradiography.

p51 promoter [1] = assay: Luciferase assay in geneticin-selected HCT116/p51 promoter clones
Procedure: The medium in the cell culture dish was removed, and 5 ml of the cell lysis reagent (25 mM Tris-HCl, pH 7.8, 2 mM dithiothreitol, 2 mM CDTA, 0.2% triton X-100, 10% glycerol) was added and incubated at room temperature for 15 minutes.
As the plasmid-introduced cells, the HCT116 cell line was used. 500,000 cells of HCT116 cell were plated on a cuture dish with a diameter of 60 mm. The medium used was McCOY's 5A/10% FBS. These were cultured in the presence of 5% carbon dioxide at 37° C. for 48 hours. The medium was replaced with McCOY's 5A containing no serum. As the plasmid for introduction, two μg of pGL2-neo/p51 promoter was dissolved in 4 μl of the TE solution to prepare a plasmid solution. The plasmid was introduced using the lipofectamine plus reagent (manufactured by GIBCO BRL). Thus, 125 μl of McCOY's 5A and 8 μl of the plus solution were added to the plasmid solution, stirred well, and then incubated at room temperature for 15 minutes. To this solution, 125 μl of McCOY's 5A and 12 μl of the lipofectamine solution were added, stirred well, and then incubated at room temperature for further 15 minutes. This was added to the HCT116 cells cultured by the above procedure, gently mixed, and incubated in the presence of 5% carbon dioxide at 37° C. for three hours to permit the introduction of the plasmid. Subsequently, the medium was replaced with McCOY's 5A/10% FBS, and incubated in the presence of 5% carbon dioxide at 37° C. for 21 hours. Then, the cells were recovered from the culture dish with PBS containing 0.25% trypsin and 0.02% EDTA, and 1% amount thereof was plated onto a culture dish with a diameter of 100 mm. It was further cultured in McCOY's 5A/10% FBS medium in the presence of 5% carbon dioxide at 37° C. for further 72 hours, and then 1.2 mg/ml of geneticin (manufactured by Nacalai Tesque) was added as a selection drug. By replacing the medium every three days, and further culturing in the above condition for further two weeks, the cells into whose genes the plasmid gene was introduced, and became geneticin-resistant, were selected. Subsequently, 50 clones were isolated from the cell group that formed colonies on the dish, and were plated on a 24-well culture dish to continue being cultured.
Thus, the reactivity of these clones to trichostatin A was investigated by the following procedure. 500,000 cells each of the cloned cells were plated on a cuture dish with a diameter of 60 mm. The medium used was McCOY's 5A/10% FBS. These were cultured in the presence of 5% carbon dioxide at 37° C. for 48 hours. Then, trichostatin A was added to the two groups of cells to a final concentration of 0 or 0.1 μg/ml, and cultured in the presence of 5% carbon dioxide at 37° C. for 24 hours. For these cells, their luciferase activity was determined to examine the effect on the p51 promoter activity. The luciferase activity was determined according to the above method.

p51 promoter [2] = assay: Luciferase reporter assay in HCT116 cells transiently transfected with pGL2-neo/p51 promoter; details: HCT116, 1 μg/ml trichostatin A vs 0, 24 hours
Procedure: Subsequently, the following experiment was carried out in order to perform functional analysis of the p51 promoter region. 200,000 cells of HCT116 were plated on a culture dish with a diameter of 60 mm. The medium used was McCOY's 5A/10% FBS. These were cultured in the presence of 5% carbon dioxide at 37° C. for 48 hours. The medium was replaced with McCOY's 5A containing no serum. Subsequently, 2 μg each of pGL2-neo/p51 promoter or pGL2-neo vector was introduced. The plasmid was introduced using the lipofectamine plus reagent (manufactured by GIBCO BRL). Thus, 125 μl of McCOY's 5A and 8 μl of the plus solution were added to the plasmid solution, stirred well, and then incubated at room temperature for 15 minutes. To this solution, 125 μl of McCOY's 5A and 12 μl of lipofectamine solution were added, stirred well, and then incubated at room temperature for further 15 minutes. This was added to the HCT116 cells incubated by the above procedure, gently mixed, and cultured in the presence of 5% carbon dioxide at 37° C. for three hours to introduce plasmid. Subsequently, the medium was replaced with McCOY's 5A/10% FBS, and cultured in the presence of 5% carbon dioxide at 37° C. for 21 hours. […] For these cells, the luciferase activity was determined to investigate promoter activity. […] The luciferase activity was determined according to the following method. […]

Which results are given for `CC(/C=C/C(=O)NO)=C\[C@@H](C)C(=O)c1ccc(N(C)C)cc1` [trichostatin A]?
amount of p51A mRNA (specific band that reacts with p51A-derived cDNA) (p51A mRNA): transactivates p51; also recorded: specific band that reacts with p51A-derived cDNA was only observed; measured values of luciferase activity, clone #5 (p51 promoter [1]; HCT116/p51 promoter clone #5, with TsA 0.1 μg/ml, 24 hours (without TsA 3.9)): 29.5; measured values of luciferase activity, clone #9 (p51 promoter [1]; HCT116/p51 promoter clone #9, with TsA 0.1 μg/ml, 24 hours (without TsA 1.0)): 33.3; measured values of luciferase activity, clone #17 (p51 promoter [1]; HCT116/p51 promoter clone #17, with TsA 0.1 μg/ml, 24 hours (without TsA 17.0)): 44.1; measured values of luciferase activity, clone #18 (p51 promoter [1]; HCT116/p51 promoter clone #18, with TsA 0.1 μg/ml, 24 hours (without TsA 6.8)): 14.0; luciferase activity of cloned cells (p51 promoter [1]; several clones, 0.1 μg/ml trichostatin A, 24 hours): significantly enhanced luciferase activity; luciferase activity (fluorescence/chemiluminescence intensity) of pGL2-neo/p51 promoter-introduced cells (p51 promoter [2]): further remarkably enhanced; also recorded: markedly enhanced
